Experimental data published in patent US9187467B2, “2-phenyl benzothiazole linked imidazole compounds as potential anticancer agents and process for the preparation thereof” (Council of Scientific and Industrial Research, priority 2012, dated 2015).
Read-outs that look alike come from different tables or passages of the source.

Experiments:
[1] = test system: UO-31; test: SRB anticancer assay, renal; format: cell-based, human; conditions: Homo sapiens, UO-31, 48 h
[2] = test system: T-47D; test: SRB anticancer assay, breast; format: cell-based; conditions: Homo sapiens, T47D, 48 h
[3] = test system: BT-549; test: SRB anticancer assay, breast; format: cell-based, human; conditions: Homo sapiens, BT-549, 48 h
[4] = test system: LOX IMVI; test: SRB anticancer assay, melanoma; format: cell-based, human; conditions: Homo sapiens, 48 h
[5] = test system: TK-10; test: SRB anticancer assay, renal; format: cell-based, human; conditions: Homo sapiens, TK-10, 48 h
[6] = test system: U251; test: SRB anticancer assay, CNS; format: cell-based, human; conditions: Homo sapiens, U-251; U251, 48 h
[7] = test system: SF-539; test: SRB anticancer assay, CNS; format: cell-based, human; conditions: Homo sapiens, SF-539, 48 h
[8] = test system: MCF-7 (Breast carcinoma) cells; test: Cell cycle distribution by flow cytometry (FACS); format: cell-based; conditions: MCF-7 cells, 2 μM, 24h
Experimental: FIG. 1 represents FACS analysis of cell cycle distribution of MCF-7 cells after treatment with compounds CA-4, 21a, 21d, 4c, 6d, 6e, 6f, 7d, 7h and 7j at 2 μM concentration for 24h and control cells are the cells treated with DMSO (0.25%).
(§1) In order to investigate the mechanism underlying the anti-proliferative effect of the compounds the cell cycle distribution was analyzed in K562 (Leukemia) and MCF-7 (Breast carcinoma) cell lines by flow cytometry. Compounds CA-4, 21a, 21d, 4c, 6d, 6e, 6f, 7d, 7h and 7j have shown 1.72%, 14%, 12%, 14%, 12%, 14%, 14%, 16%, 16% &12% in K562 cells and 49.63%, 21%, 20%, 18%, 21%, 21%, 21%, 24%, 23% and 23% in MCF-7 cell line respectively. […] Thus compound 7d was considered for further studies (FIG. 1).

[9] = test system: HL-60 (TB); test: SRB anticancer assay, leukemia; format: cell-based, human; conditions: Homo sapiens, HL-60, 48 h
[10] = test system: Non-small cell lung cancer cell lines; test: SRB anticancer assay, panel result; format: cell-based, human
Method in brief: (§2)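 Tested across a sixty-line human cancer panel spanning nine tumour types. Dose–response curves used at least five concentrations in 10-fold dilution steps, with 48 h continuous drug exposure; cell growth/viability was estimated by sulforhodamine B protein staining.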

[11] = test system: Melanoma cancer cell lines; test: SRB anticancer assay, panel result; format: cell-based, human
Method in brief: as §2

[12] = test system: Prostate cancer cell lines; test: SRB anticancer assay, panel result; format: cell-based, human
Method in brief: as §2

[13] = test system: Ovarian cancer cell lines; test: SRB anticancer assay, panel result; format: cell-based, human
Method in brief: as §2

[14] = test system: Renal cancer cell lines; test: SRB anticancer assay, panel result; format: cell-based, human
Method in brief: as §2

[15] = test system: Leukemia cancer cell lines; test: SRB anticancer assay, panel result; format: cell-based, human
Method in brief: as §2

[16] = test system: CNS cancer cell lines; test: SRB anticancer assay, panel result; format: cell-based, human
Method in brief: as §2

[17] = test system: Colon cancer cell lines; test: SRB anticancer assay, panel result; format: cell-based, human
Method in brief: as §2

[18] = test system: PC-3; test: SRB anticancer assay, prostate; format: cell-based, human; conditions: Homo sapiens, PC-3, 48 h
[19] = test system: IGROV1; test: SRB anticancer assay, ovarian; format: cell-based, human; conditions: Homo sapiens, IGROV-1; IGROV1, 48 h
[20] = test system: ACHN; test: SRB anticancer assay, renal; format: cell-based, human; conditions: Homo sapiens, 48 h
[21] = test system: NCI-H226; test: SRB anticancer assay, non-small lung; format: cell-based, human; conditions: Homo sapiens, NCI-H226, 48 h
[22] = test system: UACC-62; test: SRB anticancer assay, melanoma; format: cell-based, human; conditions: Homo sapiens, UACC-62, 48 h
[23] = test system: K562 (Leukemia) cells; test: Cell cycle distribution by flow cytometry; format: cell-based
Experimental: as §1

[24] = test system: NCI-H522; test: SRB anticancer assay, non-small lung; format: cell-based, human; conditions: Homo sapiens, NCI-H522, 48 h

`COc1cc(OC)c2sc(-c3ccc(-n4cncc4-c4ccc(OC)c(OC)c4)cc3)nc2c1` [Compound 6e, 2-(4-(5-(3,4-Dimethoxyphenyl)-1H-imidazol-1-yl)phenyl)-5,7-dimethoxybenzo[d]thiazole] was tested, and the GI50 [1] was 31.7 µM, the GI50 [2] was 4.15 µM and the GI50 [3] was 3.78 µM. The GI50 [4] was over 100 µM, the GI50 [5] was over 100 µM and the GI50 [6] was 9.19 µM. The GI50 [7] was over 100 µM, the “cells in G2/M phase” value [8] was 21% and the GI50 [9] was 3.09 µM. The LC50 ([10]; Homo sapiens, Non-small cell lung panel, 50% net cell death, read-out: mean graph midpoint value (MG_MID) of Log10 LC50 (converted)) was over 100 µM, the GI50 ([10]; Homo sapiens, Non-small cell lung panel, read-out: mean graph midpoint value (MG_MID) of Log10 GI50 (converted)) was 22.9 µM and the GI50 ([10]; Homo sapiens, nine Non-small cell lung cancer cell lines, exposure at least 48 h, read-out: GI50, range over the panel) was 5.26 to 41.8 µM. The “mean graph midpoint value (MG_MID) of log10 TGI” value ([10]; Non-small cell lung panel, total inhibition of net cell growth) was −4.01, the LC50 ([11]; Homo sapiens, Melanoma panel, 50% net cell death, read-out: mean graph midpoint value (MG_MID) of Log10 LC50 (converted)) was over 100 µM and the GI50 ([11]; Homo sapiens, Melanoma panel, read-out: mean graph midpoint value (MG_MID) of Log10 GI50 (converted)) was 40.7 µM. The GI50 ([11]; Homo sapiens, nine melanoma cancer cell lines, exposure at least 48 h, read-out: GI50, range over the panel) was 3.61 to 59.8 µM, the “mean graph midpoint value (MG_MID) of log10 TGI” value ([11]; Melanoma panel, total inhibition of net cell growth) was over −4.0 and the LC50 ([12]; Homo sapiens, Prostate panel, 50% net cell death, read-out: mean graph midpoint value (MG_MID) of Log10 LC50 (converted)) was over 100 µM. For the same compound, the GI50 ([12]; Homo sapiens, Prostate panel, read-out: mean graph midpoint value (MG_MID) of Log10 GI50 (converted)) was 10.2 µM, the GI50 ([12]; Homo sapiens, two prostate cancer cell lines (PC-3, DU-145), exposure at least 48 h, read-out: GI50, range over the panel) was 3.66 to 27.9 µM and the “mean graph midpoint value (MG_MID) of log10 TGI” value ([12]; Prostate panel, total inhibition of net cell growth) was over −4.0. It also gave an LC50 ([13]; Homo sapiens, Ovarian panel, 50% net cell death, read-out: mean graph midpoint value (MG_MID) of Log10 LC50 (converted)) of over 100 µM, a GI50 ([13]; Homo sapiens, Ovarian panel, read-out: mean graph midpoint value (MG_MID) of Log10 GI50 (converted)) of 29.5 µM and a GI50 ([13]; Homo sapiens, seven ovarian cancer cell lines, exposure at least 48 h, read-out: GI50, range over the panel) of 3.85 to 56.1 µM. The “mean graph midpoint value (MG_MID) of log10 TGI” value ([13]; Ovarian panel, total inhibition of net cell growth) was over −4.0, the CC50 ([14]; Homo sapiens, Renal panel, 50% net cell death, read-out: mean graph midpoint value (MG_MID) of Log10 LC50 (converted)) was over 100 µM and the GI50 ([14]; Homo sapiens, Renal panel, read-out: mean graph midpoint value (MG_MID) of Log10 GI50 (converted)) was 25.1 µM. For the same compound, the GI50 ([14]; Homo sapiens, eight renal cancer cell lines, exposure at least 48 h, read-out: GI50, range over the panel) was 2.15 to 3.17 µM, the “mean graph midpoint value (MG_MID) of log10 TGI” value ([14]; Renal panel, total inhibition of net cell growth) was over −4.0 and the LC50 ([15]; Homo sapiens, Leukemia panel, 50% net cell death, read-out: mean graph midpoint value (MG_MID) of Log10 LC50 (converted)) was over 100 µM. The GI50 ([15]; Homo sapiens, Leukemia panel, read-out: mean graph midpoint value (MG_MID) of Log10 GI50 (converted)) was 16.2 µM, the GI50 ([15]; Homo sapiens, six leukemia cancer cell lines, exposure at least 48 h, read-out: GI50, range over the panel) was 3.03 to 5.88 µM and the “mean graph midpoint value (MG_MID) of log10 TGI” value ([15]; Leukemia panel, total inhibition of net cell growth) was over −4.0. For the same compound, the “mean graph midpoint value (MG_MID) of log10 TGI” value ([16]; CNS panel, total inhibition of net cell growth) was −4.06, the CC50 ([16]; Homo sapiens, CNS panel, 50% net cell death, read-out: mean graph midpoint value (MG_MID) of Log10 LC50 (converted)) was over 100 µM and the GI50 ([16]; Homo sapiens, CNS panel, read-out: mean graph midpoint value (MG_MID) of Log10 GI50 (converted)) was 19.1 µM. The GI50 ([16]; Homo sapiens, six CNS cancer cell lines, exposure at least 48 h, read-out: GI50, range over the panel) was 7 to 9.96 µM, the “mean graph midpoint value (MG_MID) of log10 TGI” value ([17]; Colon panel, total inhibition of net cell growth) was over −4.0 and the LC50 ([17]; Homo sapiens, Colon panel, 50% net cell death, read-out: mean graph midpoint value (MG_MID) of Log10 LC50 (converted)) was over 100 µM. The GI50 ([17]; Homo sapiens, Colon panel, read-out: mean graph midpoint value (MG_MID) of Log10 GI50 (converted)) was 25.1 µM, the GI50 ([17]; Homo sapiens, seven colon cancer cell lines, exposure at least 48 h, read-out: GI50, range over the panel) was 5.48 to 7.13 µM and the GI50 [18] was 3.66 µM. The GI50 [19] was 56.1 µM, the GI50 [20] was over 100 µM and the GI50 [21] was 6.44 µM. For the same compound, the GI50 [22] was 8.14 µM, the “cells in G2/M phase” value [23] was 14% and the GI50 [24] was 5.26 µM.
